What was measured:
Assay type in all cases: cell-based, human
H1299 cells [1] = experiment: Transwell migration and invasion assay, H1299 cells; settings: 12 h, knockdown vs Scr
From the text: Fig. 2 NatD is required for lung cancer cell migration and invasion in vitro. a Quantitative real-time PCR analysis of NatD mRNA levels normalized to GAPDH in scrambled control cells (Scr) and NatD-KD1 and NatD-KD2 cells. Results are shown as mean ± s.d. from three independent experiments. Two-tailed Student’s t-test was used. **P < 0.01 compared to Scr control. b Western blot analysis of NatD and Nt-ac-H4 protein levels in scrambled, NatD-KD1, and NatD-KD2 cells. GAPDH and histone H4 served as loading controls. […] Wound healing assay results are quantified in the histogram (right panel). […] Cell migration and invasion are expressed as a percentage of control (bottom panel). […]
Fig. 5 Regulation of Slug by NatD is acetyltransferase activity-dependent. a (left) In vitro acetylation assay showing the catalytic activity of NatDΔ and wild-type NatD (CPM, counts per minute). […] (bottom) Histones shown by Coomassie blue staining. d Quantitative real-time PCR analysis of mRNA levels of Slug, E-cadherin, N-cadherin, and Vimentin normalized to GAPDH in H1299 cells overexpressing NatDΔ or wild-type NatD. […] Cell migration and invasion are expressed as a percentage of control (bottom panel). […]
The in vitro viability of H1299 cells was assessed using the Cell Counting Kit-8 (CCK-8, Dojindo, Japan) according to the manufacturer’s protocol. […]

NatD = experiment: Quantitative real-time PCR / western blot of NatD knockdown; settings: H1299 cells; for NatD mRNA, remaining relative to scrambled control: stable lentiviral shRNA, qPCR normalized to GAPDH, three independent experiments; for NatD protein level: western blot, vs Scr
From the text: Fig. 2 NatD is required for lung cancer cell migration and invasion in vitro. a Quantitative real-time PCR analysis of NatD mRNA levels normalized to GAPDH in scrambled control cells (Scr) and NatD-KD1 and NatD-KD2 cells. Results are shown as mean ± s.d. from three independent experiments. Two-tailed Student’s t-test was used. **P < 0.01 compared to Scr control. b Western blot analysis of NatD and Nt-ac-H4 protein levels in scrambled, NatD-KD1, and NatD-KD2 cells. GAPDH and histone H4 served as loading controls. Blots are representative of three independent experiments. c Representative images from wound healing assay of scrambled, NatD-KD1, and NatD-KD2 cells from three independent experiments (left panels). Wound healing assay results are quantified in the histogram (right panel). Results are shown as mean ± s.d. from three independent experiments. Two-tailed Student’s t-test was used. **P < 0.01 compared to Scr control. d Representative images of the migration of scrambled, NatD-KD1, and NatD-KD2 cells in a time-lapse cell tracker migration assay from three independent experiments. Representative images of the migration (e) and invasion (f) of scramble, NatD-KD1, and NatD-KD2 cells with transwell assay from three independent experiments (top panel). Cell counts for the corresponding assays of at least four random microscope fields (×100 magnification). Cell migration and invasion are expressed as a percentage of control (bottom panel). Results are shown as mean ± s.d. from three independent experiments. Two-tailed Student’s t-test was used. **P < 0.01 compared to Scr control
The small interfering RNA (siRNA) target sequences for RNA interference of NatD were inserted into the XhoI/HpaI sites in the pLL3.7 lentiviral vector according to the manufacturer’s recommendations (American Type Culture Collection, USA). The oligonucleotides were:
Total RNA from tissue samples and cultured cells was extracted using TRIzol reagent (Invitrogen). cDNAs were synthesized with a HiScript 1st Strand cDNA Synthesis Kit (Vazyme Biotech, China). Quantitative RT-PCR was performed using a FastStart Universal SYBR Green Master (Roche) according to the manufacturer’s instructions in a Rotor-Gene 6000 (Corbett Research) in a final volume of 20 μl. Cycling conditions were 94 °C for 15 s, 60 °C for 30 s, and 72 °C for 30 s. Each reaction was performed in triplicate. The primer sequences for RT-PCR are listed in Supplementary Table 2 and Table 3.

H1299 cells [2] = experiment: Cell growth (CCK-8), H1299 cells; settings: vs Scr
Procedure: The in vitro viability of H1299 cells was assessed using the Cell Counting Kit-8 (CCK-8, Dojindo, Japan) according to the manufacturer’s protocol. Flow cytometric analysis of apoptosis was assessed by Annexin V and PI staining using the Annexin V-APC Apoptosis Detection Kit (KeyGEN BioTECH, China) according to the manufacturer’s guide. For cell cycle analysis, cells were harvested and fixed at 4 °C overnight with 70% ethanol. Cells were washed twice with PBS, and their DNA was stained using a Cell Cycle Detection Kit (KeyGEN BioTECH, China). The samples were analyzed by flow cytometry (Becton Dickinson, NJ, USA), and results were analyzed with FlowJo software according to the manufacturer’s instructions. For the wound healing assay, cells were plated to confluence in a 6-well plate, and the cell monolayer was scratched using a pipette tip. Representative photos were taken using a digital camera mounted on an inverted microscope (Olympus) at indicated times. Live cell imaging was performed using the HoloMonitor M4 time-lapse cytometer (Phase Holographic Imaging, Sweden). […]
Supplementary Figure 1. […] (b and c) Representative images from three independent experiments of apoptosis (b) and cell cycle analysis (c) of Scr and NatD-KD H1299 cells analyzed by flow cytometry. […]

H1299 cells [3] = experiment: Wound healing assay, H1299 cells; settings: vs Scr
From the text: Fig. 2 NatD is required for lung cancer cell migration and invasion in vitro. a Quantitative real-time PCR analysis of NatD mRNA levels normalized to GAPDH in scrambled control cells (Scr) and NatD-KD1 and NatD-KD2 cells. Results are shown as mean ± s.d. from three independent experiments. Two-tailed Student’s t-test was used. **P < 0.01 compared to Scr control. b Western blot analysis of NatD and Nt-ac-H4 protein levels in scrambled, NatD-KD1, and NatD-KD2 cells. GAPDH and histone H4 served as loading controls. Blots are representative of three independent experiments. c Representative images from wound healing assay of scrambled, NatD-KD1, and NatD-KD2 cells from three independent experiments (left panels). Wound healing assay results are quantified in the histogram (right panel). […] Cell migration and invasion are expressed as a percentage of control (bottom panel). […]
The in vitro viability of H1299 cells was assessed using the Cell Counting Kit-8 (CCK-8, Dojindo, Japan) according to the manufacturer’s protocol. Flow cytometric analysis of apoptosis was assessed by Annexin V and PI staining using the Annexin V-APC Apoptosis Detection Kit (KeyGEN BioTECH, China) according to the manufacturer’s guide. […] The samples were analyzed by flow cytometry (Becton Dickinson, NJ, USA), and results were analyzed with FlowJo software according to the manufacturer’s instructions. […]

| Substance | migratory and invasive capabilities (transwell) (H1299 cells [1]) | NatD knockdown quality (NatD; KD2 vs KD1) | NatD mRNA, remaining relative to scrambled control (NatD) [%] | NatD protein level (NatD) | cell growth rate (H1299 cells [2]) | migration in wound healing assay (H1299 cells [3]) |
| --- | --- | --- | --- | --- | --- | --- |
| NatD-KD2: Human NatD shRNA KD2: 5′-GGTTGAATGTCTCCATTGA-3′, lentiviral (shRNA lentiviral) | significantly reduced | somewhat better knockdown | 30 | decreased | grew at a similar rate | migrated significantly more slowly |
| NatD-KD1: Human NatD shRNA KD1: 5′-GATGAAGAAGGTTATGTTA-3′, lentiviral (shRNA, lentiviral) | significantly reduced | – | 30 | decreased | grew at a similar rate | migrated significantly more slowly |

Source: paper PMC5640650, “NatD promotes lung cancer progression by preventing histone H4 serine phosphorylation to activate Slug expression” (Nature Communications, 2017)
